Test results as given in patent publication US20130225641A1, “ANTICANCER COMPOUNDS AND PREPARATION METHODS THEREOF” (priority 2010, published 2013).

Columns and labels:
G-361 = experiment: MTT cytotoxicity, G-361; type: cell-based; conditions: Homo sapiens, G-361, Skin (melanoma), 72 hrs, read-out: LC50 (the source's name)
Protocol: (§1) The cytotoxicity of ZTP and ZTQ was analyzed by using human tumor cell lines. Human tumor cell lines were purchased from ATCC and NCI, and cultured in DMEM medium containing 10% FBS at 37° C. in 5% CO2 in an incubator. The cells grown to confluence were used for cytotoxicity analysis. The cells were digested with trypsin, washed with the culture medium, and then counted. 33 tumor cell lines were cultured. The cells were seeded at a density of 3000-6000 cells/well in a 96-well plate and incubated for 16-24 hrs. Then, various concentrations of ZTP or ZTQ dissolved in DMSO were added, and cultured for 72 hrs. The drug-treated cells and control cells were analyzed by MTT.

IGROV1 = experiment: MTT cytotoxicity, IGROV1; type: cell-based; conditions: Homo sapiens, IGROV-1, IGROV1, Ovarian, 72 hrs, read-out: LC50 (the source's name)
Protocol: as §1

Caki-1 = experiment: MTT cytotoxicity, Caki-1; type: cell-based; conditions: Homo sapiens, Caki-1, Renal, 72 hrs, read-out: LC50 (the source's name)
Protocol: as §1

LoVo = experiment: MTT cytotoxicity, LoVo; type: cell-based; conditions: Homo sapiens, Colonic, 72 hrs, read-out: LC50 (the source's name)
Protocol: as §1

Mid PaCa-2 = experiment: MTT cytotoxicity, Mid PaCa-2; type: cell-based; conditions: Homo sapiens, Mid PaCa-2, Pancreatic, 72 hrs, read-out: LC50 (the source's name)
Protocol: as §1

[1] = Acute toxicity studies in mice; type: in vivo; conditions: for death of test mice: single dose of 500 mg/kg and divided doses of 100 mg/kg
Description: After tests, the mice were sacrificed for pathological analysis.

Raf protein kinase = experiment: Inhibition of Raf protein kinase activity (phosphorylated MEK, western blotting) in MDA-MB-321 cells; type: cell-based, human; conditions: 1 hour treatment, phosphorylated MEK level, read-out: median inhibitory concentration (IC50) for inhibiting the activity of Raf protein kinase
Description: Raf is a proto-oncogenic product, and activation of Raf is regulated with stimulation from extracellular cell growth factors. Once activated, Raf can activate MEK through phosphorylation, and further transmits an activation signal to ERK, thereby promoting the growth of tumor cells. In this test, the level of phosphorylated MEK in cells is indicative of the activity of Raf protein kinase in cells. MDA-MB-321 is a human derived breast cancer cell line, which is rich in Raf protein. We used MDA-MB-321 cells to detect whether ZTP and ZTQ can inhibit the activity of Raf protein kinase. MDA-MB-321 cells were subjected to adherent growth in the RPMI 1640 medium (GIBCO-BRL) containing 10% bovine calf serum at 37° C. in 5% CO2. The cells were treated with various concentrations of ZTP and ZTQ (0, 10 ng/ml, 100 ng/ml, 500 ng/ml, 1 μg/ml, and 10 μg/ml), and the cell proteins were collected 1 hour after treatment. The protein content was determined through Bradford method, and then the level of phosphorylated MEK was assayed through western blotting. Immunoblotting experiment: denatured polyacrylamide gel was used for separation of the proteins with a sample load of 60 μg of total proteins. The proteins were electro-transferred onto a PVDF membrane and blocked. […] The membrane was exposed to an X-ray film, and the results were analyzed by a gel imaging system. […]

Widr = experiment: MTT cytotoxicity, Widr; type: cell-based; conditions: Homo sapiens, Colonic, 72 hrs, read-out: LC50 (the source's name)
Protocol: as §1

SK-MEL-5 = experiment: MTT cytotoxicity, SK-MEL-5; type: cell-based; conditions: Homo sapiens, SK-MEL-5, Skin (melanoma), 72 hrs, read-out: LC50 (the source's name)
Protocol: as §1

786-O = experiment: MTT cytotoxicity, 786-O; type: cell-based; conditions: Homo sapiens, 786-0, Renal, 72 hrs, read-out: LC50 (the source's name)
Protocol: as §1

PC3 = experiment: MTT cytotoxicity, PC3; type: cell-based; conditions: Homo sapiens, PC-3, PC3, Prostatic, 72 hrs, read-out: LC50 (the source's name)
Protocol: as §1

[2] = Side effects in tumor transplanted nude mice; type: in vivo, nude mice (nu/nu); conditions: during treatment
Protocol: T-cell deficient nude mice (nu/nu) of 6 weeks old were purchased from Charles River Laboratory, and housed and treated in a sterile environment following Institutional Animal Care & Use Committee Program. 48 mice were respectively subcutaneously inoculated on ribbed belly with 5×10^6 human liver cancer cells (HepG3B), human lung caner cells (NCI-H23), and human colon cancer cells (HCT-116) suspended in 0.2 ml HBSS/matrigel (50:50, V/V). When the tumor grew to have an average diameter of 7-8 mm and a volume of about 100-200 mm^3, 24 mice were picked up, and assigned to treatment groups (16 animals/2 groups), and a control group (8 animals). The 2 treatment groups were administered with the compounds ZTP and ZTQ dissolved in 15% Captsol respectively at a dose of 30 mg/kg and 60 mg/kg, and the control group only received an excipient (15% Captsol).
The dose schedule of the test compounds in the tumor transplanted nude mice was as follows: the compounds ZTP and ZTQ dissolved in 15% Captsol were daily orally administered as a 200 μl solution containing 0.75 mg of ZTP and 1.5 mg of ZTQ for 5 days/week over 3 consecutive weeks, followed by one-week break; and the control group was only administered with 200 μl of the placebo (15% Captsol) for 3 weeks, followed by 1 week of break. The two groups of animals were housed separately, and allowed to free access to food.

[3] = divided doses of 100 mg/kg, observed 4 weeks
[4] = single dose of 500 mg/kg, observed 1 week

CNC(=O)c1cc(Oc2ccc(NC(=S)Nc3ccc(Cl)c(C(F)(F)F)c3)cc2)ccn1 [ZTP, N-[4-chloro-3-(trifluoromethyl)phenyl]-[4-(N-methyl-formamide)(4-pyridyloxy)phenyl]-thiourea]
CC50 (G-361): 1910 nM | CC50 (IGROV1): 920 nM | CC50 (Caki-1): 1120 nM | CC50 (LoVo): 1310 nM | CC50 (Mid PaCa-2): 1250 nM | acute toxicity [1, 3]: no obvious toxicity | death of test mice [1]: no death occurs | acute toxicity [1, 4]: no obvious toxicity | IC50 (Raf protein kinase): 45 nM | CC50 (Widr): 950 nM | CC50 (SK-MEL-5): 1990 nM | CC50 (786-O): 1750 nM | CC50 (PC3): 1310 nM

CNC(=O)c1cc(Sc2ccc(NC(=S)Nc3ccc(Cl)c(C(F)(F)F)c3)cc2)ccn1 [ZTQ, N-[4-chloro-3-(trifluoromethyl)phenyl]-[4-(N-methyl-formamide)(4-pyridylthio)phenyl]-thiourea]
side effect, including the change in body weight [2]: no obvious side effect | CC50 (G-361): 1360 nM | CC50 (IGROV1): 730 nM | CC50 (Caki-1): 910 nM | CC50 (LoVo): 1100 nM | CC50 (Mid PaCa-2): 910 nM | acute toxicity [1, 3]: no obvious toxicity | death of test mice [1]: no death occurs | acute toxicity [1, 4]: no obvious toxicity | IC50 (Raf protein kinase): 20 nM | CC50 (Widr): 810 nM | CC50 (SK-MEL-5): 1540 nM | CC50 (786-O): 1260 nM | CC50 (PC3): 1050 nM
